These are literature values, as cited in patent US20220133758A1, “TREATMENT OF INFLAMMATORY BOWEL DISEASES WITH 2'-FUCOSYLLACTOSE COMPOUNDS” (CHILDREN'S HOSPITAL MEDICAL CENTER, priority 2017, published 2022).

For series [1] the following is noted: infliximab or adalimumab anti-TNF therapy, despite optimal therapeutic drug monitoring and dosing.
The subject of series [2] is EC genes regulating butyrate transport, signaling, and mitochondrial oxidation. Conditions: IBD patients who experience mucosal healing.

For the substance adalimumab, the patients relapsed in series [1] is recorded as 37%.
Take “infliximab: monoclonal anti-TNF antibody”: in the series with fecal Bifidobacterium (pediatric CD study), the Bifidobacterium abundance entry is on record as “not associated with increased Bifidobacterium abundance”. The correction of dysbiosis entry in the series on fecal Bifidobacterium (suppression of mucosal inflammation) is reported as “only partially corrects”. Moreover, the “inflammatory suppression of EC genes regulating butyrate transport, signaling, and mitochondrial oxidation” value in series [2] is reported as “largely corrected”. In addition, the patients relapsed in series [1] is listed as 37%.
